Data on one substance can be found in patent publication US20230158098A1, “COMPOSITION FOR PROMOTING ENERGY EXPENDITURE” (MORINAGA MILK INDUSTRY CO., LTD., priority 2017, published 2023).

This assay deals with Male C57BL/6J mice. The assay can be described thus: Energy expenditure by indirect calorimetry, administration at rest 2. In kind it is in vivo. Particulars: mice fasted 1 hour, oral, hydrolysates 1.0 mg/g body weight, MKP peptide 0.4 μg/g body weight, randomized crossover, FIG. 3. Here is the method:
Male C57BL/6J mice as laboratory animals were divided into the following four groups: rest group, casein hydrolysate administration group, MKP peptide administration group, and whey protein hydrolysate administration group. The mice were fasted for 1 hour. Subsequently, a casein hydrolysate and a whey protein hydrolysate each in an amount of 1.0 mg/g body weight and a MKP peptide in an amount of 0.4 μg/g body weight were orally administered, and energy expenditure was measured. The number of mice used in the experiment was n=12 in each group, and a randomized crossover test was employed.
Incidentally, as the casein hydrolysate and the whey protein hydrolysate, those prepared in <1>, (1) to (2), above were used, and, as the MKP peptide, a synthetic peptide was purchased from Peptide Institute and used. Energy expenditure for 60 minutes after administration was determined.
As compared with the rest group, in all the casein hydrolysate administration group, MKP peptide administration group, and whey protein hydrolysate administration group, the level of energy expenditure was higher.

Turning to H-Met-Lys-Pro-OH [MKP peptide], the “average energy expenditure for 60 minutes after administration compared with the rest group” value is recorded as “higher”.
